Where two headings read alike, the source gives them in different places.
What was measured:
45-bp dsDNA = assay: DNA intercalation: acridine orange displacement from dsDNA by fluorescence polarization; type: binding; settings: Supplementary Table 2; for % intercalation at 30 µM: acridine orange displacement compared to mitoxantrone; for Polarization: compound 30 µM
Description: Ten microliters of HEN buffer (10 mM HEPES pH 7.5, 1 mM EDTA pH 7.5, 100 mM NaCl) were dispensed per well using a Thermo Multidrop Combi dispenser (Thermo Scientific). The liquid was collected at the well bottom using centrifugation for 30 s at 180×g. […] The final concentration of compounds in the assay was 30 µM. […] The liquid was collected at the well bottom using centrifugation for 30 s at 180×g. […] The liquid was collected at the well bottom using centrifugation for 30 s at 180 × g and the plates were incubated for 30 min. Mitoxantrone, a known DNA intercalator was used at 50 µM as a positive control, while DMSO alone was used as negative control. FP was measured using a Biotek Synergy Neo plate reader. […] All FP values are expressed in millipolarization (mP) units. The mP values were calculated using the equation mP = 1000 × [(I S−I SB)−(I P−I PB)]/[I S—I SB) + (I P−I PB)], where I S and […] to the parallel and perpendicular emission intensity, respectively, and I SB and I SP corresponds to parallel emission intensity perpendicular emission intensity of the buffer, respectively. The experimental G-factor, defined as G = I S/I P, was set to 1.0 in all experiments.

mouse cGAS = target: T1, mouse cGAS (Mus musculus, UniProt Q8C6L5); assay: RapidFire mass spectrometry (RF-MS) cGAS enzymatic assay, cGAMP product formation; type: biochemical; settings: for inhibition at 12.5 µM: read-out: % inhibition at 12.5 µM
T1 construct: recombinant full-length mouse cGAS in reaction buffer; His6-SUMO (N, cleaved yes); made in house; host or cells: E. coli BL21(DE3) RIL
Description: The liquid was collected at the well bottom using centrifugation for 30 s at 180×g. […] Plates were centrifuged for 30 s at 180×g to collect all liquid at the bottom of the wells. […] The reaction was stopped by addition of 65 µl of 0.5% (v/v) formic acid per well. The plates were centrifuged for 30 s at 180×g and sealed with a Velocity11 PlateLoc thermal plate sealer.
The solvent used for loading/washing process was an aqueous solution of 5 mM ammonium acetate, pH 10. […] Each sample of approximately 35 µl were aspirated from a 384-well plate and separated using a Graphitic carbon Type D cartridge. After each sample was loaded onto the cartridge it was washed for 4 s at 1.5 ml min^−1 using the aqueous solvent. ATP, GTP and cGAMP were eluted for 5 s using the organic solvent at a flow rate of 1.5 ml min^−1. The cartridge was then re-equilibrated with the aqueous solvent for 5 s at a flow rate of 1.5 ml min^−1. All samples were analyzed using a negative ionization mode in the mass spectrometer, with a gas temperature of 350 °C, nebulizer pressure of 35 psig, gas flow rate of 15 l min^−1. […] The Agilent RapidFire Integrator software was used to calculate the area under the curve (AUC) of the extracted ion counts for each analyte. Data points represent values of product formation. Catalytic rates expressed as percent product formation were calculated using the AUC of cGAMP and using the AUC’s of ATP and GTP to normalize for variations in the capacity of the solid phase extraction column during a screening run, as shown in the following formula: product formation (%) = [(AUCcGAMP × 100)/(AUCcGAMP + ½ AUCATP + ½ AUCGTP)].
To determine the percent inhibition of mouse cGAS the data was normalized against the positive control (column 24) and negative control (column 23). […] The quality of the screen was assessed by Z′ factor[57] calculated as follows: Z′ = 1−[3∗(standard deviation positive control + standard deviation negative control)/(average positive control—average negative control)].

[1] = Supplementary Table 2, batch of compounds stored in the screening library, read-out: IC50
[2] = Supplementary Table 2, compound 12.5 µM

T1 sequence (Q8C6L5 whole entry): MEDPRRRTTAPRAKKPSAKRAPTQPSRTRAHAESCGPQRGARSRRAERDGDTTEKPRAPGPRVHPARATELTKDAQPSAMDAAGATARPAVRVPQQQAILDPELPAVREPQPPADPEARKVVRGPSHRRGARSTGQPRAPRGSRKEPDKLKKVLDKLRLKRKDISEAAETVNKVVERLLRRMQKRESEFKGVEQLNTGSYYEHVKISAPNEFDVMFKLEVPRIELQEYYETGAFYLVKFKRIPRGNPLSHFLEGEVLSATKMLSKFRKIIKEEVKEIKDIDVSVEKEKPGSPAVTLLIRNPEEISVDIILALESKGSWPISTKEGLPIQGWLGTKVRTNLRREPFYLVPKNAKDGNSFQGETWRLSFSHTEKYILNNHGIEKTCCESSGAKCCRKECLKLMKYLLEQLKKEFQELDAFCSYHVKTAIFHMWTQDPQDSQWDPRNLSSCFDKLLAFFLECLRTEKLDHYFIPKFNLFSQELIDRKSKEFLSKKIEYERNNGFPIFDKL

O=C(O)c1cc(O)c2c(c1)[C@@H]([C@H]1c3cc(C(=O)O)cc(O)c3C(=O)c3c(O[C@H]4O[C@H](CO)[C@@H](O)[C@H](O)[C@H]4O)cccc31)c1cccc(O[C@H]3O[C@H](CO)[C@@H](O)[C@H](O)[C@H]3O)c1C2=O [RU646]
% intercalation at 30 µM (45-bp dsDNA): -13.5% | Polarization (45-bp dsDNA): 278 mP | IC50 (mouse cGAS; [1]): 8.76 µM | inhibition at 12.5 µM (mouse cGAS; [2]): 82%

CC[n+]1c(-c2ccccc2)c2cc(N)ccc2c2ccc(N)cc21 [RU662]
% intercalation at 30 µM (45-bp dsDNA): 101.9% | Polarization (45-bp dsDNA): 42 mP | IC50 (mouse cGAS; [1]): 0.43 µM | inhibition at 12.5 µM (mouse cGAS; [2]): 97%

O=[N+]([O-])c1ccc(O)c([N+](=O)[O-])c1 [RU803]
% intercalation at 30 µM (45-bp dsDNA): -4.7% | Polarization (45-bp dsDNA): 260 mP | IC50 (mouse cGAS): 0.87 µM | inhibition at 12.5 µM (mouse cGAS): 96%

CCN(CC)CCNc1ccc(CO)c2sc3ccccc3c(=O)c12 [RU869]
% intercalation at 30 µM (45-bp dsDNA): 81.2% | Polarization (45-bp dsDNA): 85 mP | IC50 (mouse cGAS; [1]): 6.8 µM | inhibition at 12.5 µM (mouse cGAS; [2]): 66%

C[n+]1cc2c3c(ccc2c2ccc4cc5c(cc4c21)OCO5)OCO3 [RU871]
% intercalation at 30 µM (45-bp dsDNA): 95.0% | Polarization (45-bp dsDNA): 56 mP | IC50 (mouse cGAS; [1]): 3.37 µM | inhibition at 12.5 µM (mouse cGAS; [2]): 85%

CC[C@@]1(O)C[C@H](O[C@H]2C[C@H](N(C)C)[C@H](O)[C@H](C)O2)c2c(cc3c(c2O)C(=O)c2c(O)cccc2C3=O)[C@H]1C(=O)OC [RU891]
% intercalation at 30 µM (45-bp dsDNA): 90.6% | Polarization (45-bp dsDNA): 65 mP | IC50 (mouse cGAS; [1]): 1.42 µM | inhibition at 12.5 µM (mouse cGAS; [2]): 98%

O=C(O)COc1cc(Cl)c(Cl)cc1Cl [RU1535]
% intercalation at 30 µM (45-bp dsDNA): 3.4% | Polarization (45-bp dsDNA): 244 mP | IC50 (mouse cGAS; [1]): 0.55 µM | inhibition at 12.5 µM (mouse cGAS; [2]): 98%

CCOc1ccc2nc3cc(N)ccc3c(N)c2c1 [RU1667]
% intercalation at 30 µM (45-bp dsDNA): 54.5% | Polarization (45-bp dsDNA): 139 mP | IC50 (mouse cGAS; [1]): 1.01 µM | % inhibition at 12.5 µM (mouse cGAS; [2]): 92%

S=c1[nH]nc(-c2sc3ccccc3c2Cl)o1 [RU3433]
Polarization (45-bp dsDNA): 288 mP | IC50 (mouse cGAS; [1]): 6.12 µM | inhibition at 12.5 µM (mouse cGAS; [2]): 92%

CCOC(=O)c1n[nH]c2c1C(=O)N(CC)C2=O [RU4893]
% intercalation at 30 µM (45-bp dsDNA): -1.4% | Polarization (45-bp dsDNA): 254 mP | IC50 (mouse cGAS; [1]): 6.42 µM | inhibition at 12.5 µM (mouse cGAS; [2]): 62%

O=c1[nH]n2c(=O)c3ccccc3nc2c2ccccc12 [RU5004]
% intercalation at 30 µM (45-bp dsDNA): -2.1% | Polarization (45-bp dsDNA): 255 mP | IC50 (mouse cGAS; [1]): 6.49 µM | inhibition at 12.5 µM (mouse cGAS; [2]): 90%

O=C(O)C1CSC(c2cc(Br)c(O)c(Br)c2)N1 (stereo not shown) [RU5512]
% intercalation at 30 µM (45-bp dsDNA): -6.3% | Polarization (45-bp dsDNA): 264 mP | IC50 (mouse cGAS; [1]): 3 µM | inhibition at 12.5 µM (mouse cGAS; [2]): 87%

Cc1nc2nc(C)c(Br)c(O)n2n1 [RU6753]
% intercalation at 30 µM (45-bp dsDNA): -0.5% | Polarization (45-bp dsDNA): 252 mP | IC50 (mouse cGAS; [1]): 7.99 µM | inhibition at 12.5 µM (mouse cGAS; [2]): 69%

COc1cccc2c1C(=O)c1c(O)c3c(c(O)c1C2=O)C[C@@](O)(C(=O)CO)C[C@@H]3O[C@H]1C[C@H](N)[C@H](O)[C@H](C)O1 [RU24114]
Polarization (45-bp dsDNA): 53 mP | IC50 (mouse cGAS): 0.82 µM | inhibition at 12.5 µM (mouse cGAS; [2]): 96%

COc1cccc2c1C(=O)c1c(O)c3c(c(O)c1C2=O)C[C@@](O)(C(C)=O)C[C@@H]3OC1CC(N)C(O)C(C)O1 (stereo partly shown) [RU24146]
Polarization (45-bp dsDNA): 55 mP | IC50 (mouse cGAS; [1]): 0.69 µM | inhibition at 12.5 µM (mouse cGAS; [2]): 93%

COc1cccc2c1C(=O)c1c(O)c3c(c(O)c1C2=O)C[C@@](O)(C(C)=O)C[C@@H]3O[C@H]1C[C@H](N)[C@H](O)[C@H](C)O1 [RU83653]
% intercalation at 30 µM (45-bp dsDNA): 98.0% | Polarization (45-bp dsDNA): 50 mP | IC50 (mouse cGAS; [1]): 1.81 µM | inhibition at 12.5 µM (mouse cGAS; [2]): 91%

CC(=O)[C@]1(O)Cc2c(O)c3c(c(O)c2[C@@H](O[C@H]2C[C@H](N)[C@H](O)[C@H](C)O2)C1)C(=O)c1ccccc1C3=O [RU84314]
% intercalation at 30 µM (45-bp dsDNA): 87.2% | Polarization (45-bp dsDNA): 72 mP | IC50 (mouse cGAS; [1]): 1.45 µM | inhibition at 12.5 µM (mouse cGAS; [2]): 90%

N#CCC(=O)Nc1sc2c(c1C(N)=O)CCCC2 [RU93687]
% intercalation at 30 µM (45-bp dsDNA): -5.8% | Polarization (45-bp dsDNA): 263 mP | IC50 (mouse cGAS; [1]): 9.11 µM | inhibition at 12.5 µM (mouse cGAS; [2]): 91%

CC(C)OC(=O)C(C#N)=Cc1ccc([N+](=O)[O-])o1 [RU94102]
% intercalation at 30 µM (45-bp dsDNA): -8.1% | Polarization (45-bp dsDNA): 267 mP | IC50 (mouse cGAS; [1]): 8.14 µM | inhibition at 12.5 µM (mouse cGAS; [2]): 64%

N#CC1=C(N)SC(N)=C(C#N)C1c1ccc([N+](=O)[O-])cc1 [RU107796]
% intercalation at 30 µM (45-bp dsDNA): -7.6% | Polarization (45-bp dsDNA): 266 mP | IC50 (mouse cGAS; [1]): 8.66 µM | inhibition at 12.5 µM (mouse cGAS; [2]): 62%

O=C(CCl)Nc1nc(-c2c[nH]c3ccccc23)cs1 [RU114757]
% intercalation at 30 µM (45-bp dsDNA): -10.1% | Polarization (45-bp dsDNA): 271 mP | IC50 (mouse cGAS; Fig. 1e, four prioritized screening hits, confirmed with independent lots of compound, read-out: IC50): 1.4 µM | IC50 (mouse cGAS; [1]): 5.38 µM | inhibition at 12.5 µM (mouse cGAS; [2]): 72%

O=C1NC(=S)SC1=Cc1ccccc1F [RU116287]
% intercalation at 30 µM (45-bp dsDNA): -9.8% | Polarization (45-bp dsDNA): 271 mP | IC50 (mouse cGAS; [1]): 6.51 µM | inhibition at 12.5 µM (mouse cGAS; [2]): 63%

COc1cccc2c1C(=O)c1c(O)c3c(c(O)c1C2=O)C[C@@](O)(C(=O)CO)C[C@@H]3O[C@H]1C[C@H](N)[C@@H](O)[C@H](C)O1 [RU162145]
% intercalation at 30 µM (45-bp dsDNA): 96.5% | Polarization (45-bp dsDNA): 53 mP | IC50 (mouse cGAS): 0.58 µM | inhibition at 12.5 µM (mouse cGAS; [2]): 98%

CCC1=NN2C(=N)/C(=C/c3ccc(O)cc3)C(=O)N=C2S1 [RU169196]
% intercalation at 30 µM (45-bp dsDNA): -7.5% | Polarization (45-bp dsDNA): 266 mP | IC50 (mouse cGAS; [1]): 4.25 µM | inhibition at 12.5 µM (mouse cGAS; [2]): 89%

CCC1=NN2C(=N)/C(=C/c3cccs3)C(=O)N=C2S1 [RU169248]
% intercalation at 30 µM (45-bp dsDNA): -5.7% | Polarization (45-bp dsDNA): 262 mP | IC50 (mouse cGAS; [1]): 3.34 µM | inhibition at 12.5 µM (mouse cGAS; [2]): 97%

Cc1ccc(C(=O)c2nc3c(n2O)CCCCC3)cc1 [RU171395]
% intercalation at 30 µM (45-bp dsDNA): -0.3% | Polarization (45-bp dsDNA): 251 mP | IC50 (mouse cGAS; [1]): 0.25 µM | inhibition at 12.5 µM (mouse cGAS; [2]): 90%

Cc1nnc(NC(=O)c2ccc(S(=O)(=O)Nc3cccc(C(F)(F)F)c3)o2)s1 [RU174368]
% intercalation at 30 µM (45-bp dsDNA): 5.6% | Polarization (45-bp dsDNA): 239 mP | IC50 (mouse cGAS; [1]): 7.47 µM | inhibition at 12.5 µM (mouse cGAS; [2]): 76%

NC(=O)N1C(=O)/C(=C(\O)c2cccs2)c2cc(Cl)ccc21 [RU187170]
Polarization (45-bp dsDNA): 276 mP | IC50 (mouse cGAS; [1]): 6.09 µM | inhibition at 12.5 µM (mouse cGAS; [2]): 70%

Reference: PMC5622107, “Small molecule inhibition of cGAS reduces interferon expression in primary macrophages from autoimmune mice” (Nature Communications, 2017)
